Test results: ChEMBL document CHEMBL1151469, “Cytotoxic activity of N-chlorotaurine on Acanthamoeba spp” (Antimicrob Agents Chemother, 2008)
The source made the active and inactive calls. The rule behind the calls is not given here.

Columns and labels:
Acanthamoeba polyphaga [1] = assay: Amoebicidal activity against excysted trophozoites of Acanthamoeba polyphaga 5SU at 55 mM in peptone yeast extract glucose medium after 24 hrs by hemocytometer using trypan blue stain; assay type: functional
Acanthamoeba hatchetti [2] = assay: Amoebicidal activity against Trophozoites of Acanthamoeba hatchetti 11DS assessed as killing time at 10 mM in phosphate buffered saline at pH 7 by hemocytometer using trypan blue stain; assay type: functional
Acanthamoeba hatchetti [3] = assay: Amoebicidal activity against Trophozoites of Acanthamoeba hatchetti 11DS in peptone yeast extract glucose medium at pH 7 after 1 hr by hemocytometer using trypan blue stain in presence of 68 mM ammonium chloride; assay type: functional, organism-based
Acanthamoeba polyphaga [4] = assay: Amoebicidal activity against Trophozoites of Acanthamoeba polyphaga 5SU assessed as killing time at 55 mM in phosphate buffered saline at pH 7 by hemocytometer using trypan blue stain; assay type: functional
Acanthamoeba polyphaga [5] = assay: Amoebicidal activity against Trophozoites of Acanthamoeba polyphaga 5SU in phosphate buffered saline at pH 7 after 24 hrs by hemocytometer using trypan blue stain; assay type: functional, organism-based
Acanthamoeba polyphaga [6] = assay: Amoebicidal activity against Trophozoites of Acanthamoeba polyphaga 5SU in phosphate buffered saline at pH 7 after 6 hrs by hemocytometer using trypan blue stain; assay type: functional, organism-based
Acanthamoeba polyphaga [7] = assay: Amoebicidal activity against Trophozoites of Acanthamoeba polyphaga 5SU assessed as reduction killing time at 55 mM in phosphate buffered saline at pH 7 by hemocytometer using trypan blue stain in presence of 190 mM ammonium chloride; assay type: functional, organism-based
Acanthamoeba hatchetti [8] = assay: Amoebicidal activity against Trophozoites of Acanthamoeba hatchetti 11DS assessed as increase in reduction in cell count at 20 mM in peptone yeast extract glucose medium at pH 7 after 6 hrs by hemocytometer using trypan blue stain in presence of 580 mM ammonium chloride; assay type: functional, organism-based
Acanthamoeba hatchetti [9] = assay: Amoebicidal activity against Trophozoites of Acanthamoeba hatchetti 11DS in peptone yeast extract glucose medium at pH 7 after 1 hr by hemocytometer using trypan blue stain; assay type: functional, organism-based
Acanthamoeba polyphaga [10] = assay: Amoebicidal activity against Trophozoites of Acanthamoeba polyphaga 5SU assessed as prevention of sporadic cysts formation at 55 mM in phosphate buffered saline at pH 7 by hemocytometer using trypan blue stain; assay type: functional, organism-based
Acanthamoeba castellanii [11] = assay: Amoebicidal activity against excysted trophozoites of Acanthamoeba castellanii 4CL at 55 mM in peptone yeast extract glucose medium after 24 hrs by hemocytometer using trypan blue stain; assay type: functional
Acanthamoeba polyphaga [12] = assay: Amoebicidal activity against Trophozoites of Acanthamoeba polyphaga 5SU in phosphate buffered saline at pH 7 after 24 hrs by hemocytometer using trypan blue stain in presence of 34 mM ammonium chloride; assay type: functional, organism-based
Acanthamoeba castellanii [13] = assay: Amoebicidal activity against excysted trophozoites of Acanthamoeba castellanii 40AB at 55 mM in peptone yeast extract glucose medium after 24 hrs by hemocytometer using trypan blue stain; assay type: functional
Acanthamoeba castellanii [14] = assay: Amoebicidal activity against excysted trophozoites of Acanthamoeba castellanii 40AB at 55 mM in peptone yeast extract glucose medium after 4 days by hemocytometer using trypan blue stain; assay type: functional
Acanthamoeba polyphaga [15] = assay: Amoebicidal activity against Trophozoites of Acanthamoeba polyphaga 5SU assessed as log reduction in cell count at 10 mM in phosphate buffered saline at pH 7 after 6 hrs by hemocytometer using trypan blue stain; assay type: functional
Acanthamoeba polyphaga [16] = assay: Amoebicidal activity against Trophozoites of Acanthamoeba polyphaga 5SU in phosphate buffered saline at pH 7 after 1 hr by hemocytometer using trypan blue stain in presence of 34 mM ammonium chloride; assay type: functional, organism-based
Acanthamoeba polyphaga [17] = assay: Amoebicidal activity against Trophozoites of Acanthamoeba polyphaga 5SU assessed as complete loss of viability at 55 mM in phosphate buffered saline after 24 hrs by hemocytometer using trypan blue stain in presence of 190 mM ammonium chloride; assay type: functional, organism-based
Acanthamoeba castellanii [18] = assay: Amoebicidal activity against Trophozoites of Acanthamoeba castellanii 4CL assessed as log reduction in cell count at 20 mM in peptone yeast extract glucose medium at pH 7 after 24 hrs by hemocytometer using trypan blue stain; assay type: functional
Acanthamoeba polyphaga [19] = assay: Amoebicidal activity against Trophozoites of Acanthamoeba polyphaga 5SU assessed as rounding of the cells at 55 mM in peptone yeast extract glucose medium at pH 7 after 30 mins by hemocytometer using trypan blue stain; assay type: functional, organism-based
Acanthamoeba polyphaga [20] = assay: Amoebicidal activity against Trophozoites of Acanthamoeba polyphaga 5SU assessed as log reduction in cell count at 10 mM in phosphate buffered saline at pH 7 after 6 hrs by hemocytometer using trypan blue staining; assay type: functional, organism-based
Acanthamoeba polyphaga [21] = assay: Amoebicidal activity against Trophozoites of Acanthamoeba polyphaga 5SU assessed as log reduction in cell count at 20 mM in peptone yeast extract glucose medium at pH 7 after 24 hrs by hemocytometer using trypan blue stain; assay type: functional
Acanthamoeba castellanii [22] = assay: Amoebicidal activity against Trophozoites of Acanthamoeba castellanii 4CL assessed as log reduction in cell count at 10 mM in phosphate buffered saline at pH 7 after 6 hrs by hemocytometer using trypan blue stain; assay type: functional
Acanthamoeba polyphaga [23] = assay: Amoebicidal activity against Trophozoites of Acanthamoeba polyphaga 5SU in peptone yeast extract glucose medium at pH 7 after 1 hr by hemocytometer using trypan blue stain in presence of 68 mM ammonium chloride; assay type: functional, organism-based
Acanthamoeba hatchetti [24] = assay: Amoebicidal activity against Trophozoites of Acanthamoeba hatchetti 11DS assessed as reduction of killing time at 10 mM in phosphate buffered saline at pH 5 by hemocytometer using trypan blue stain in presence of 160 mM beta-alanine; assay type: functional
Acanthamoeba hatchetti [25] = assay: Amoebicidal activity against Trophozoites of Acanthamoeba hatchetti 11DS in peptone yeast extract glucose medium at pH 7 after 6 hrs by hemocytometer using trypan blue stain in presence of 68 mM ammonium chloride; assay type: functional, organism-based
Acanthamoeba polyphaga [26] = assay: Amoebicidal activity against Trophozoites of Acanthamoeba polyphaga 5SU assessed as killing time at 10 mM in phosphate buffered saline at pH 7 by hemocytometer using trypan blue stain; assay type: functional
Acanthamoeba castellanii [27] = assay: Amoebicidal activity against excysted trophozoites of Acanthamoeba castellanii 40AB at 55 mM in peptone yeast extract glucose medium after 6 days by hemocytometer using trypan blue stain; assay type: functional
Acanthamoeba polyphaga [28] = assay: Amoebicidal activity against Trophozoites of Acanthamoeba polyphaga 5SU assessed as reduction killing time at 55 mM in phosphate buffered saline at pH 7 by hemocytometer using trypan blue stain; assay type: functional, organism-based
Acanthamoeba castellanii [29] = assay: Amoebicidal activity against Trophozoites of Acanthamoeba castellanii 40AB assessed as killing time at 10 mM in phosphate buffered saline at pH 7 by hemocytometer using trypan blue stain; assay type: functional
Acanthamoeba polyphaga [30] = assay: Amoebicidal activity against Trophozoites of Acanthamoeba polyphaga 5SU in peptone yeast extract glucose medium at pH 7 after 24 hrs by hemocytometer using trypan blue stain in presence of 68 mM ammonium chloride; assay type: functional, organism-based
Acanthamoeba hatchetti [31] = assay: Amoebicidal activity against Trophozoites of Acanthamoeba hatchetti 11DS assessed as rounding of the cells at 55 mM in phosphate buffered saline at pH 7 after 15 mins by hemocytometer using trypan blue stain; assay type: functional, organism-based
Acanthamoeba castellanii [32] = assay: Amoebicidal activity against excysted trophozoites of Acanthamoeba castellanii 4CL at 55 mM in peptone yeast extract glucose medium after 4 days by hemocytometer using trypan blue stain; assay type: functional
Acanthamoeba hatchetti [33] = assay: Amoebicidal activity against Trophozoites of Acanthamoeba hatchetti 11DS assessed as killing time at 20 mM in peptone yeast extract glucose medium at pH 7 by hemocytometer using trypan blue stain; assay type: functional
Acanthamoeba castellanii [34] = assay: Amoebicidal activity against Trophozoites of Acanthamoeba castellanii 4CL assessed as killing time at 10 mM in phosphate buffered saline at pH 7 by hemocytometer using trypan blue stain; assay type: functional

## O=S(=O)(O)CCNCl
Acanthamoeba polyphaga [1]
  Activity: 1000
Acanthamoeba hatchetti [2]
  Activity: 30 h
Acanthamoeba hatchetti [3]
  EC50: 13.9 mM
Acanthamoeba polyphaga [4]
  Activity: 1 h
Acanthamoeba polyphaga [5]
  EC50: 3.47 mM
  EC90: 7.38 mM
Acanthamoeba polyphaga [6]
  EC50: 4 mM
  EC90: 7.95 mM
Acanthamoeba polyphaga [7]
  Activity: inactive
Acanthamoeba hatchetti [8]
  Activity: inactive
Acanthamoeba hatchetti [9]
  EC50: 10.1 mM
Acanthamoeba polyphaga [10]
  Activity: inactive
Acanthamoeba castellanii [11]
  Activity: 0
Acanthamoeba polyphaga [12]
  EC50: 4.96 mM
  EC90: 9.03 mM
Acanthamoeba castellanii [13]
  Activity: 0
Acanthamoeba castellanii [14]
  Activity: 13000
Acanthamoeba polyphaga [15]
  Activity: 2
Acanthamoeba polyphaga [16]
  EC50: 5.31 mM
  EC90: 9.5 mM
Acanthamoeba polyphaga [17]
  Activity: Active
Acanthamoeba castellanii [18]
  Activity: 2
Acanthamoeba polyphaga [19]
  Activity: Active
Acanthamoeba polyphaga [20]
  Activity: Active
Acanthamoeba polyphaga [21]
  Activity: 2
Acanthamoeba castellanii [22]
  Activity: 2
Acanthamoeba polyphaga [23]
  EC50: 16.6 mM
Acanthamoeba hatchetti [24]
  Activity: 15 h
Acanthamoeba hatchetti [25]
  EC50: 10.4 mM
Acanthamoeba polyphaga [26]
  Activity: 15 h
Acanthamoeba castellanii [27]
  Activity: 38000
Acanthamoeba polyphaga [28]
  Activity: Active
Acanthamoeba castellanii [29]
  Activity: 30 h
Acanthamoeba polyphaga [30]
  EC50: 10.2 mM
Acanthamoeba hatchetti [31]
  Activity: Active
Acanthamoeba castellanii [32]
  Activity: 2000
Acanthamoeba hatchetti [33]
  Activity: 36 h
Acanthamoeba castellanii [34]
  Activity: 36 h
